Consider two compounds from patent publication US8507469B2, “Azetidin compounds suitable for treating disorders that respond to modulation of the serotonin 5-HT6 receptor” (Abbott GmbH & Co. KG, priority 2007, dated 2013).

pKi: −log10 of the molar value. Where a name gives a salt, the structure may show the parent alone.

In one experiment the target is T1, h-5-HT6 receptor (Homo sapiens, UniProt P50406).
T1 construct: expressed in transfected cells
The experiment can be described thus: 5-HT6 receptor binding assay (displacement of [3H]-LSD). The settings on record: HEK293 membranes, 1 nM [3H]-LSD. The protocol:
(§1) Cells from stable clonal cell lines expressing the corresponding receptor (5-HT6, 1-adrenergic, dopamine D2 or histamine H1 receptors) were washed with PBS (w/o Ca^++, Mg^++) and harvested in PBS with 0.02% EDTA. The cells were collected by centrifugation at 500 g for 10 min. at 4° C., washed with PBS and centrifuged (500 g, 10 min. 4° C.). The pellets were stored at −80° C. until use. For membrane preparation, the thawed cell pellet was resuspended in ice-cold sucrose buffer (0.25 M sucrose, 10 mM Hepes (pH 7.4), 1 mM Phenylmethylsulfonyl fluoride (PMSF) in DMSO, […] Pepstatin-A, 3 mM EDTA, 0.025% Bacitracin) and homogenized with a Branson Sonifier W-250 (Settings: Timer 4; Output Control 3; Duty Cycle constant; 2 to 3 cycles). Cell disruption was checked with the aid of a microscope. Remaining unbroken cells were pelleted at 1.000 g for 10 min. at 4° C. The sucrose buffer supernatant was then centrifuged at 60.000 g for 1 h at 4° C. (Beckman Ultrazentrifuge XL 80). The pellet was resuspended in 30 ml ice-cold Tris buffer (20 mM TRIS (pH 7.4), […] Pepstatin A, 0.1 mM PMSF, 3 mM EDTA) by pipetting through a 10 ml serological pipet and centrifuged for 1 h at 4° C. at 60.000 g. A final resuspension was performed in a small volume of ice-cold Tris buffer (see above) by pressing through a serological pipet followed by ultrasonic treatment with a Branson Sonifier W-250 (Settings: Timer 1; Output Control 3; Duty Cycle constant; 1 cycle). Protein concentration was determined (BCA-Kit; Pierce) and aliquots stored at −80° C. or in liquid nitrogen for long-term storage.
(§2) All receptor binding experiments were carried out in the corresponding assay buffer in a total volume of 200 μl in the presence of various concentrations of test compound (10^−5 M to 10^−9 M, tenfold serial dilution, duplicate determinations). The assays were terminated by filtration on polyethylenimine (PEI 0.1% or 0.3%) presoaked Packard Unifilter Plates (GF/C or GF/B) with a Tomtec MachIII U 96well-plate harvester. After the plates had been dried for 2 h at 55° C. in a drying chamber scintillation cocktail (BetaPlate Scint; PerkinElmer) was added. Radioactivity was measured in a Microbeta Trilux two hours after the addition of the scintillation mixture. Data derived from liquid scintillation counting were analysed by iterative non-linear regression analysis with the use of the Statistical Analysis System (SAS): a program similar to “LIGAND” as described by Munson and Rodbard (Analytical Biochemistry 107, 220-239 (1980).
HEK293 cells stably expressing the h-5-HT6 receptor (NCBI Reference Sequence XM 001435) were cultured in RPMI1640 medium supplemented with 25 mM HEPES, 10% fetal calf serum and 1-2 mM glutamine. The membrane preparation was performed as described in section 1. […] Non-specific binding was defined with 1 μM methiothepin. The binding reaction was carried out for 3.5 h at room temperature. During the incubation, the plates were shaken on a plate shaker at 100 rpm and terminated by filtration on Packard Unifilter GF/C (0.1% PEI) plates, followed by 2 wash cycles with ice-cold 50 mM Tris-HCl, 5 mM CaCl2.
(§3) Data derived from liquid scintillation counting were analyzed by iterative non-linear regression analysis with the use of the Statistical Analysis System (SAS): a program similar to “LIGAND” as described by Munson and Rodbard (Anal. Biochem. 1980, 107, 220-239). Fitting was performed according to formulae described by Feldman (Anal. Biochem. 1972, 48, 317-338). IC50, nH and Ki values were expressed as geometrical mean.
(In a radioligand displacement assay an active substance lowers the binding of a labelled ligand.)

The next experiment addresses T2, dopamine D2 receptor (Homo sapiens, UniProt P14416).
T2 construct: expressed in transfected cells
Description: Dopamine D2 receptor binding assay (displacement of [125I]-iodospiperone). The following applies: HEK293 membranes, 0.01 nM [125I]-iodospiperone. The protocol: as §1, §2
HEK293 cells stably expressing the dopamine D2 receptor (NCBI Reference Sequence NM_000795) were cultured in RPMI1640 medium supplemented with 25 mM HEPES, 10% fetal calf serum and 1-2 mM glutamine. The membrane preparation was performed as described in section 1. […] On the day of the assay, the membranes were thawed, diluted in assay buffer (50 mM Tris-HCl, 120 mM NaCl, 5 mM MgCl2, 5 mM KCl, 1.5 mM CaCl2, pH 7.4) to a concentration of 15 μg protein/assay and homogenized by gentle vortexing. For inhibition studies, 0.01 nM [^125I]-iodospiperone (PerkinElmer Life Sciences, NEX284) was incubated in the presence of various concentrations of test compound in assay buffer. Non-specific binding was defined with 1 μM haloperidol. The binding reaction was carried out for 1 h at room temperature and terminated by filtration on Packard Unifilter GF/B (0.1% PEI) plates, followed by 6 wash cycles with an ice-cold 7% polyethylenglycol solution.
as §3

The next experiment has as its target T3, α1-adrenergic receptor (Homo sapiens, UniProt P35348).
T3 construct: expressed in transfected cells
Description: α1-adrenergic receptor binding assay (displacement of [3H]-prazosine). The settings on record: CHO-K1 membranes, 0.1 nM [3H]-prazosine. How it is done: as §1, §2
CHO-K1 cells stably expressing the 1-adrenergic receptor (NCBI Reference Sequence NM_033303) were cultured in RPMI1640 medium supplemented with 25 mM HEPES, 10% fetal calf serum and 1-2 mM glutamine. The membrane preparation was performed as described in section 1. […] On the day of the assay, the membranes were thawed, diluted in assay buffer (50 mM Tris-HCl, pH 7.4) to a concentration of 4 μg protein/assay and homogenized by gentle vortexing. […] Non-specific binding was defined with 1 μM phentolamine. The binding reaction was carried out for 1 h at room temperature and terminated by filtration on Packard Unifilter GF/C (0.1% PEI) plates, followed by 3 wash cycles with ice-cold assay buffer.
as §3

Another experiment addresses histamine H1 receptor (Homo sapiens, UniProt P35367). The experiment can be described thus: H1 receptor binding assay (displacement of [3H]-pyrilamine). The settings on record: CHO-K1 membranes, 1 nM [3H]-pyrilamine. How it is done: as §1, §2
CHO-K1 cells stably expressing the histamine H1 receptor (Euroscreen-ES-390-C, NCBI Reference Sequence NM_000861) were cultured in RPMI1640 medium supplemented with 25 mM HEPES, 10% fetal calf serum and 1-2 mM glutamine. The membrane preparation was performed as described in section 1. […] On the day of the assay, the membranes were thawed, diluted in assay buffer (50 mM Na2HPO4, 50 mM KH2PO4, pH 7.4) to a concentration of 6 μg protein/assay and homogenized by gentle vortexing. […] The binding reaction was carried out for 50 minutes at room temperature and terminated by filtration on Packard Unifilter GF/C (0.3% PEI) plates, followed by 2 wash cycles with ice-cold assay buffer.
as §3

T3 sequence (P35348 1-475 isoform P35348-2): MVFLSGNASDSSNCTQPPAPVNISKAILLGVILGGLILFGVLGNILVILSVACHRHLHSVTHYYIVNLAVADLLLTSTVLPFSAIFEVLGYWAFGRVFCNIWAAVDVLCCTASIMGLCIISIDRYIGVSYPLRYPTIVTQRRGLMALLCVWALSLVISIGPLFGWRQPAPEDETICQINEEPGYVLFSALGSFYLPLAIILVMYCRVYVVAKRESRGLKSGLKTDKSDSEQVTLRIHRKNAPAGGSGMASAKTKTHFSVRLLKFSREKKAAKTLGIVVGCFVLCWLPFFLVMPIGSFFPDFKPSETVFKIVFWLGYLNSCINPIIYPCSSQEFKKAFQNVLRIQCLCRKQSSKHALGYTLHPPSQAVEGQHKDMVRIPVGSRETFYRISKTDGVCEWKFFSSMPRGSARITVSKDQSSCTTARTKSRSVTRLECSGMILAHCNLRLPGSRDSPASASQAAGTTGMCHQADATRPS
T1 sequence (P50406 whole entry): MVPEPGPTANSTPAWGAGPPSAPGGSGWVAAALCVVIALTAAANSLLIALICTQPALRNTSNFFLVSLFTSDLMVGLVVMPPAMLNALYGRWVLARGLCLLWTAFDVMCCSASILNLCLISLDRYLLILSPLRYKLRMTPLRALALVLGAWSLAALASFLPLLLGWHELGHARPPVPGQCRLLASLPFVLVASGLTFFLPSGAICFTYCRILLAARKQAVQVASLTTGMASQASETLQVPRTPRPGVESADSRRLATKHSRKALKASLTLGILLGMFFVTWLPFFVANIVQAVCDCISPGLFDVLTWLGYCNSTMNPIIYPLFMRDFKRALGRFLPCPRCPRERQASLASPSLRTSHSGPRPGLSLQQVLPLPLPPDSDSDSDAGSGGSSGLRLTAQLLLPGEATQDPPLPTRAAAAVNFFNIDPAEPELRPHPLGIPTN
histamine H1 receptor, sequence (P35367 whole entry): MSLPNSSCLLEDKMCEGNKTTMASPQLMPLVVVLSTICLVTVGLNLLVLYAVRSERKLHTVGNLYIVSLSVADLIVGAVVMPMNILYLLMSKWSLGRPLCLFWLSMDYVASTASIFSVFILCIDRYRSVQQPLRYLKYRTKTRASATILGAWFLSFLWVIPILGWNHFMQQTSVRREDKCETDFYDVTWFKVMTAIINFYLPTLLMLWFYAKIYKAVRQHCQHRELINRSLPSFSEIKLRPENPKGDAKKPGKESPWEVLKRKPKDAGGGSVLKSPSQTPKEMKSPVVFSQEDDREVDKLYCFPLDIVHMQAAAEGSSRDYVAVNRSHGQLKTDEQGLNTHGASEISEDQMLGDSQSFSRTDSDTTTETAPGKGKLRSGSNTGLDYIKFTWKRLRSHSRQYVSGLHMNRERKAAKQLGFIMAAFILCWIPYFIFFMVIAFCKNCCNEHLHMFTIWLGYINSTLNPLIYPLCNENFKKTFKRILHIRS
T2 sequence (P14416 whole entry): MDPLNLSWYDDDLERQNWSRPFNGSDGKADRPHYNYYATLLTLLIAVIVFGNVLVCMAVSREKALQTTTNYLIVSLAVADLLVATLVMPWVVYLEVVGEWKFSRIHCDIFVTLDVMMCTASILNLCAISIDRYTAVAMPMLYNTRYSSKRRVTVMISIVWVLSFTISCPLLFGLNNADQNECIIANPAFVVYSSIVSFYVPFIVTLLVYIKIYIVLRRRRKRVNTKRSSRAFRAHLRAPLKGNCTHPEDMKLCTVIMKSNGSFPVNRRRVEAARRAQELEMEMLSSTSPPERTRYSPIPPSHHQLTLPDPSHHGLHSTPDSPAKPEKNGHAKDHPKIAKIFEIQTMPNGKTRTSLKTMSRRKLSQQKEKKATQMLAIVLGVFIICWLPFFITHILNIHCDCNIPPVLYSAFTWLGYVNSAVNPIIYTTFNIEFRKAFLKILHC

For the compound `O=S(=O)(c1cccc(C(F)(F)F)c1)N1CCc2cc(C3CNC3)ccc21` [compound 30, 5-Azetidin-3-yl-1-(3-trifluoromethyl-benzenesulfonyl)-2,3-dihydro-1H-indole, hydrochloride], the pKi – broadly, the negative decadic logarithm of the Ki, by convention in mol/L – at h-5-HT6 receptor was above 8.30; at dopamine D2 receptor it was below 6.00; at α1-adrenergic receptor, below 6.00; on histamine H1 receptor, below 6.00.
Consider `O=S(=O)(c1ccccc1)n1ccc2cc(C3CNC3)cnc21` [compound 46, 5-Azetidin-3-yl-1-benzenesulfonyl-1H-pyrrolo[2,3-b]pyridine, formic acid salt], for which the pKi on h-5-HT6 receptor is above 8.00; on dopamine D2 receptor it was below 5.00; on α1-adrenergic receptor, below 5.00; at histamine H1 receptor, below 5.00.
